# According to US4861788A, “Antibacterial 1-normon-2-yl-heterocyclic compounds” (Beecham Group plc, priority 1983, dated 1989):
# Like-named read-outs stand apart in the source and are kept apart here.
# Legend:
# [1] = system: Strep. uberis SPU1; assay: MIC against veterinary bacteria in vitro (Diagnostic Sensitivity Test Agar); conditions: Streptococcus uberis, SPU1, 18 h
# Protocol: (§2) The activity of the normonyl derivatives of the Examples against various veterinarily important bacteria, was assayed in vitro using two-fold serial dilutions in Diagnostic Sensitivity Test Agar inoculated with 10^4 organisms.
# [2] = system: M. dispar NCTC 10125; assay: MIC against Mycoplasma in vitro (Friis broth with agarose); assay type: cell-based; conditions: 144 h; M. dispar NCTC 10125; 6 days at 37° C; read-out: MIC
# [3] = system: Past. haemolytica PA5; assay: MIC against veterinary bacteria in vitro (Diagnostic Sensitivity Test Agar); conditions: Mannheimia haemolytica, PA5, 18 h
# Protocol: as §2
# [4] = system: E. coli E1; assay: as above; conditions: Escherichia coli, E1, 18 h
# Protocol: as §2
# [5] = system: M. bovigenitalium ATCC 14173; assay: MIC against Mycoplasma in vitro (Friis broth with agarose); assay type: cell-based; conditions: 144 h
# [6] = system: M. hyopneumoniae NCTC 101101; assay: as above; assay type: cell-based; conditions: Mesomycoplasma hyopneumoniae, NCTC101101, 144 h
# [7] = system: M. hyopneumoniae Str. 11; assay: as above; assay type: cell-based; conditions: Mesomycoplasma hyopneumoniae
# [8] = system: M. hyopneumoniae JF 435; assay: as above; assay type: cell-based; conditions: Mesomycoplasma hyopneumoniae, JF435, 144 h; M. hyopneumoniae JF 435; 6 days at 37° C; read-out: MIC
# [9] = system: M. hyopneumoniae MS 16; assay: as above; assay type: cell-based; conditions: Mesomycoplasma hyopneumoniae, MS16, 144 h; M. hyopneumoniae MS 16; 6 days at 37° C; read-out: MIC
# [10] = system: Staph. aureus B4 (pen. resistant); assay: MIC against veterinary bacteria in vitro (Diagnostic Sensitivity Test Agar); conditions: Staphylococcus aureus, 18 h
# Protocol: as §2
# [11] = system: M. hyopneumoniae J2206/183^b; assay: MIC against Mycoplasma in vitro (Friis broth with agarose); assay type: cell-based; conditions: Mesomycoplasma hyopneumoniae, 144 h; M. hyopneumoniae J2206/183^b; 6 days at 37° C; read-out: MIC
# [12] = system: E. coli ESS; assay: MIC against human bacteria in vitro (nutrient agar, chocolated horse blood); assay type: cell-based; conditions: Escherichia coli; human; E. coli ESS; 18 hours at 37° C; read-out: MIC
# Protocol: (§1) The activity of the normonyl derivaties of the Examples against various bacteria which are important in diseases of humans, was assayed in vitro using serial dilutions in nurient agar with 5% chocolated horse blood.
# [13] = system: Pasteurella multocida 1633; assay: as above; assay type: cell-based; conditions: human; Pasteurella multocida 1633; 18 hours at 37° C; read-out: MIC
# Protocol: as §1
# [14] = system: K. aerogenes A; assay: as above; assay type: cell-based; conditions: Klebsiella aerogenes
# Protocol: as §1
# [15] = system: Strep. agalactiae 2788-B; assay: as above; assay type: cell-based; conditions: Streptococcus agalactiae
# Protocol: as §1
# [16] = system: Staph. aureus Oxford; assay: as above; assay type: cell-based; conditions: Staphylococcus aureus; human; Staph. aureus Oxford; 18 hours at 37° C; read-out: MIC
# Protocol: as §1
# [17] = system: Sarcina lutea 8340; assay: as above; assay type: cell-based
# Protocol: as §1
# [18] = system: Strep. faecalis I; assay: as above; assay type: cell-based; conditions: Enterococcus faecalis
# Protocol: as §1
# [19] = system: Ps. aeruginosa NCTC 10662; assay: as above; assay type: cell-based; conditions: Pseudomonas aeruginosa
# Protocol: as §1
# [20] = system: Strep. spp. 64/848-C; assay: as above; assay type: cell-based; conditions: human; Strep. spp. 64/848-C; 18 hours at 37° C; read-out: MIC
# Protocol: as §1
# [21] = system: Bacillus subtilis 6633; assay: as above; assay type: cell-based; conditions: human; Bacillus subtilis 6633; 18 hours at 37° C; read-out: MIC
# Protocol: as §1
# [22] = system: E. coli NCTC 10418; assay: as above; assay type: cell-based; conditions: Escherichia coli
# Protocol: as §1
# [23] = system: Corynebacterium xerosis 9755; assay: as above; assay type: cell-based
# Protocol: as §1
# [24] = system: Staph. aureus W2827; assay: as above; assay type: cell-based; conditions: Staphylococcus aureus; human; Staph. aureus W2827; 18 hours at 37° C; read-out: MIC
# Protocol: as §1
# [25] = system: Strep. pyogenes R80/421-A; assay: as above; assay type: cell-based; conditions: Streptococcus pyogenes
# Protocol: as §1
# [26] = system: Haemophilus influenzae Wy21; assay: as above; assay type: cell-based; conditions: human; Haemophilus influenzae Wy21; 18 hours at 37° C; read-out: MIC
# Protocol: as §1
# [27] = system: Staph. aureus Russell; assay: as above; assay type: cell-based; conditions: Staphylococcus aureus; human; Staph. aureus Russell; 18 hours at 37° C; read-out: MIC
# Protocol: as §1
# [28] = system: P. mirabilis 889; assay: as above; assay type: cell-based
# Protocol: as §1
# [29] = system: Staph. aureus Oxford; assay: MIC against veterinary bacteria in vitro (Diagnostic Sensitivity Test Agar); conditions: Staphylococcus aureus, 18 h
# Protocol: as §2
# [30] = system: E. coli NCTC 10418; assay: as above; conditions: Escherichia coli, NCTC10418, 18 h
# Protocol: as §2
# [31] = system: M. hyopneumoniae TAM 6N; assay: MIC against Mycoplasma in vitro (Friis broth with agarose); assay type: cell-based; conditions: Mesomycoplasma hyopneumoniae, TAM6N, 144 h; M. hyopneumoniae TAM 6N; 6 days at 37° C; read-out: MIC
# [32] = system: M. hyorhinis ATCC 25021; assay: as above; assay type: cell-based; conditions: Mesomycoplasma hyorhinis, ATCC25021, 144 h; M. hyorhinis ATCC 25021; 6 days at 37° C; read-out: MIC
# [33] = system: Bord. bronchiseptica B09; assay: MIC against veterinary bacteria in vitro (Diagnostic Sensitivity Test Agar); conditions: Bordetella bronchiseptica, B09, 18 h
# Protocol: as §2
Compound,MIC [1],MIC [2],MIC [3],MIC [4],MIC [8],MIC [9],MIC [10],MIC [12],MIC [13],MIC [16],MIC [20],MIC [21],MIC [24],MIC [26],MIC [27],MIC [29],MIC [30],MIC [31],MIC [32],MIC [33],further results
"CC(=Cc1nnc(-c2ccccc2)o1)CC1OCC(CC2OC2C(C)C(C)O)C(O)C1O (centres unmarked) [Example 1, 2-(1-Normon-2-yl)-5-phenyl-1,3,4-oxadiazole A]",5 µg/mL,0.5 µg/mL,10 µg/mL,> 80 µg/mL,5 µg/mL,2.5 µg/mL,5 µg/mL,10 µg/mL,2.5 µg/mL,10 µg/mL,25 µg/mL,5 µg/mL,25 µg/mL,2.5 µg/mL,25 µg/mL,5 µg/mL,> 80 µg/mL,5 µg/mL,1 µg/mL,40 µg/mL,"MIC [5]: 0.1 µg/mL; MIC ([6]; M. hyopneumoniae NCTC 101101, 6 days at 37° C, read-out: MIC): 5 µg/mL; MIC ([7]; 144 h, M. hyopneumoniae Str. 11, 6 days at 37° C, read-out: MIC): 2.5 µg/mL; MIC [11]: 5 µg/mL; MIC ([14]; 18 h): > 100 µg/mL; MIC ([15]; 2788B, 18 h): 100 µg/mL; MIC ([17]; Micrococcus luteus, 8340, 18 h): > 100 µg/mL; MIC ([18]; 18 h): > 100 µg/mL; MIC ([19]; NCTC10662, 18 h): > 100 µg/mL; MIC ([22]; NCTC10418, 18 h): > 100 µg/mL; MIC ([23]; Corynebacterium xerosis, 9755, 18 h): > 100 µg/mL; MIC ([25]; R80/421A, 18 h): 100 µg/mL; MIC ([28]; Proteus mirabilis, 889, 18 h): > 100 µg/mL"
"CSc1ccc(-c2nnc(C=C(C)CC3OCC(CC4OC4C(C)C(C)O)C(O)C3O)o2)cc1 (centres unmarked) [Example 3, 2-p-Methylthiophenyl-5-(1-normon-2-yl)-1,3,4-oxadiazole A]",2.5 µg/mL,0.25 µg/mL,20 µg/mL,> 80 µg/mL,2.5 µg/mL,0.5 µg/mL,2.5 µg/mL,4 µg/mL,8 µg/mL,8 µg/mL,16 µg/mL,4 µg/mL,8 µg/mL,2 µg/mL,8 µg/mL,5 µg/mL,> 80 µg/mL,2.5 µg/mL,0.5 µg/mL,5 µg/mL,"MIC ([5]; M. bovigenitalium ATCC 14173, 6 days at 37° C, read-out: MIC): 0.5 µg/mL; MIC [6]: 1 µg/mL; MIC ([7]; STR.11, 144 h): 1 µg/mL; MIC ([14]; human, K. aerogenes A, 18 hours at 37° C, read-out: MIC): > 128 µg/mL; MIC ([15]; human, Strep. agalactiae 2788-B, 18 hours at 37° C, read-out: MIC): 32 µg/mL; MIC ([17]; Micrococcus luteus, human, Sarcina lutea 8340, 18 hours at 37° C, read-out: MIC): > 128 µg/mL; MIC ([18]; human, Strep. faecalis I, 18 hours at 37° C, read-out: MIC): > 128 µg/mL; MIC ([19]; NCTC10662, human, Ps. aeruginosa NCTC 10662, 18 hours at 37° C, read-out: MIC): > 128 µg/mL; MIC ([22]; NCTC10418, human, E. coli NCTC 10418, 18 hours at 37° C, read-out: MIC): > 128 µg/mL; MIC ([23]; human, Corynebacterium xerosis 9755, 18 hours at 37° C, read-out: MIC): > 128 µg/mL; MIC ([25]; human, Strep. pyogenes R80/421-A, 18 hours at 37° C, read-out: MIC): 16 µg/mL; MIC ([28]; Proteus mirabilis, human, P. mirabilis 889, 18 hours at 37° C, read-out: MIC): > 128 µg/mL"
